Test results from patent publication US20220031800A1, “PEPTIDES FOR TREATING NON-EXUDATIVE MACULAR DEGENERATION AND OTHER DISORDERS OF THE EYE” (Allegro Pharmaceuticals, LLC, priority 2019, published 2022).
Square brackets hold non-standard residues; d marks the D form. Peptide text beside a SMILES is read from it. Cya = N[C@@H](CS(=O)(=O)O)C(=O)O

Assays:
Format in all cases: in vivo, human
[1] = tested on: study eye of subjects with intermediate non-exudative AMD; test: Best corrected visual acuity (BCVA, letters read) in Dry AMD study
Description: The subjects in Groups 1 and 2 received the following treatments: Thus, subjects in Group 1 received an initial sham injection in the study eye followed by a single 1 mg dose of risuteganib in the study eye. The subjects in Group 2 received a total of two (2) doses of risuteganib (1 mg per dose) in the study eye. Numerous study assessments were conducted at various time points throughout the study. Included among these study assessments were; refractive eye examinations, determinations of BCVA AND low-luminance BCVA, Lanthony D-15 color vision test, measurement of intraocular pressure (IOP), Indirect ophthalmoscopy/dilated fundus examinations and spectral-domain optical coherence tomography (SD-OCT). Also, blood and saliva samples were obtained from each subject for genetic analysis. The above-listed study assessments were performed at the time points indicated in Table 1, below: For this study, a primary efficacy endpoint was deemed to be the percentage of population with an improvement in BCVA of at least 8 letters (1.5 lines) BCVA.

[2] = tested on: study eye of subjects with intermediate non-exudative AMD; test: Microperimetry (mean retinal sensitivity, number of loci summed)
[3] = tested on: study eye of subjects with intermediate non-exudative AMD; test: Lanthony D-15 color vision test (Total Error Score Hue Style) in Dry AMD study; set-up: Color vision Total Error Score Hue Style, mean / Color vision Total Error Score Hue Style, median / Color vision Total Error Score Hue Style change, median: scale not given here
Description: Numerous study assessments were conducted at various time points throughout the study. Included among these study assessments were; refractive eye examinations, determinations of BCVA AND low-luminance BCVA, Lanthony D-15 color vision test, measurement of intraocular pressure (IOP), Indirect ophthalmoscopy/dilated fundus examinations and spectral-domain optical coherence tomography (SD-OCT). Also, blood and saliva samples were obtained from each subject for genetic analysis. The above-listed study assessments were performed at the time points indicated in Table 1, below: The results of color vision testing of the study subjects are summarized in Table 5, below.

[4] = Week 28, Group 1 crossover (sham day 1, 1 mg IVT wk 16), subset gain ≥8 letters at any week, n = 3
[5] = Week 28, Group 1 crossover (sham day 1, 1 mg IVT wk 16), subset gain ≥8 letters at primary endpoint week, n = 2
[6] = Week 28, Group 2 (1 mg IVT day 1 + wk 16), n = 25
[7] = Week 28, Group 2 (1 mg IVT day 1 + wk 16), subset gain ≥8 letters at any week, n = 14
[8] = Week 28, Group 2 (1 mg IVT day 1 + wk 16), subset gain ≥8 letters at primary endpoint week, n = 12
[9] = Week 28 vs baseline, Group 2 (1 mg IVT day 1 + wk 16), n = 25
[10] = Week 32, Group 1 crossover (sham day 1, 1 mg IVT wk 16), subset gain ≥8 letters at any week, n = 3
[11] = Week 32, Group 1 crossover (sham day 1, 1 mg IVT wk 16), subset gain ≥8 letters at primary endpoint week, n = 2
[12] = Week 32, Group 2 (1 mg IVT day 1 + wk 16), subset gain ≥8 letters at any week, n = 14
[13] = Week 32, Group 2 (1 mg IVT day 1 + wk 16), subset gain ≥8 letters at primary endpoint week, n = 12
[14] = risuteganib eyes with geographic atrophy in foveal center at baseline (n = 2)
[15] = risuteganib eyes with no geographic atrophy in foveal center at baseline (n = 23)
[16] = Week 12, Group 2 (1 mg IVT day 1 + wk 16)
[17] = Week 32, Group 1 crossover (sham day 1, 1 mg IVT wk 16)
[18] = Week 32, Group 2 (1 mg IVT day 1 + wk 16)
[19] = Week 32 change, Group 1 crossover (sham day 1, 1 mg IVT wk 16)
[20] = Week 32 change, Group 2 (1 mg IVT day 1 + wk 16)

C[C@@H](O)[C@H](NC(=O)[C@H](CS(=O)(=O)O)NC(=O)CNC(=O)[C@H](CCCNC(=N)N)NC(=O)CN)C(=O)N1CCC[C@H]1C(=O)O [risuteganib, Glycyl-L-arginylglycyl-3-sulfo-L-alanyl-L-threonyl-L-proline] (H-GRG[Cya]TP-OH)
BCVA change in letters read, mean [1, 4]: 8.0 letters read | BCVA change in letters read, median [1, 4]: 9.0 letters read | BCVA letters read, mean [1, 4]: 77.7 letters read | BCVA letters read, median [1, 4]: 74.0 letters read | BCVA change in letters read, mean [1, 5]: 9.5 letters read | BCVA change in letters read, median [1, 5]: 9.5 letters read | BCVA letters read, mean [1, 5]: 79.5 letters read | BCVA letters read, median [1, 5]: 79.5 letters read | BCVA letters read at primary endpoint week, mean [1, 6]: 70.5 letters read | BCVA letters read at primary endpoint week, median [1, 6]: 71.0 letters read | BCVA change in letters read, mean [1, 7]: 11.4 letters read | BCVA change in letters read, median [1, 7]: 11.5 letters read | BCVA letters read, mean [1, 7]: 73.9 letters read | BCVA letters read, median [1, 7]: 74.5 letters read | BCVA change in letters read, mean [1, 8]: 12.8 letters read | BCVA change in letters read, median [1, 8]: 12.0 letters read | BCVA letters read, mean [1, 8]: 75.7 letters read | BCVA letters read, median [1, 8]: 75.5 letters read | BCVA change in letters read at primary endpoint week, mean [1, 9]: 6.1 letters read | BCVA change in letters read at primary endpoint week, median [1, 9]: 6.0 letters read | BCVA change in letters read, mean [1, 10]: 6.3 letters read | BCVA change in letters read, median [1, 10]: 6.0 letters read | BCVA letters read, mean [1, 10]: 76.0 letters read | BCVA letters read, median [1, 10]: 75.0 letters read | BCVA change in letters read, mean [1, 11]: 6.5 letters read | BCVA change in letters read, median [1, 11]: 6.5 letters read | BCVA letters read, mean [1, 11]: 76.5 letters read | BCVA letters read, median [1, 11]: 76.5 letters read | BCVA change in letters read, mean [1, 12]: 8.2 letters read | BCVA change in letters read, median [1, 12]: 9.5 letters read | BCVA letters read, mean [1, 12]: 70.7 letters read | BCVA letters read, median [1, 12]: 73.0 letters read | BCVA change in letters read, mean [1, 13]: 9.5 letters read | BCVA change in letters read, median [1, 13]: 10.5 letters read | BCVA letters read, mean [1, 13]: 72.4 letters read | BCVA letters read, median [1, 13]: 74.0 letters read | ≥10 Letter Improvement in Visual Acuity, % [1, 14]: (50) % | ≥15 Letter Improvement in Visual Acuity, % [1, 14]: (0) % | ≥10 Letter Improvement in Visual Acuity, % [1, 15]: (30) % | ≥15 Letter Improvement in Visual Acuity, % [1, 15]: (22) % | Microperimetry mean sensitivity, mean [2, 16]: 7.52 dB | Microperimetry mean sensitivity, median [2, 16]: 7.50 dB | Microperimetry number of loci summed (reduced sensitivity), mean [2, 16]: 84.9 | Microperimetry number of loci summed (reduced sensitivity), median [2, 16]: 86.5 | Microperimetry mean sensitivity change, median ([2]; Week 12 change, Group 2 (1 mg IVT day 1 + wk 16)): −1.50 dB | Microperimetry mean sensitivity, mean [2, 17]: 11.44 dB | Microperimetry mean sensitivity, median [2, 17]: 13.70 dB | Microperimetry number of loci summed (reduced sensitivity), mean [2, 17]: 67.6 | Microperimetry number of loci summed (reduced sensitivity), median [2, 17]: 60.0 | Microperimetry mean sensitivity, mean [2, 18]: 8.25 dB | Microperimetry mean sensitivity, median [2, 18]: 8.50 dB | Microperimetry number of loci summed (reduced sensitivity), median [2, 18]: 79.5 | Microperimetry mean sensitivity change, median [2, 19]: −0.20 dB | Microperimetry number of loci summed change, mean [2, 19]: 7.9 | Microperimetry mean sensitivity change, median [2, 20]: −0.40 dB | Microperimetry number of loci summed change, mean [2, 20]: 1.0 | Increase (improvement) in mean retinal sensitivity ([2]; risuteganib responders at Week 32 (FIG. 5)): 2.2 dB | Color vision Total Error Score Hue Style, mean [3, 16]: 43.38 | Color vision Total Error Score Hue Style, median [3, 16]: 39.67 | Color vision Total Error Score Hue Style change, median ([3]; Week 12 change from screening, Group 2 (1 mg IVT day 1 + wk 16)): 2.67 | Color vision Total Error Score Hue Style change, mean ([3]; Week 12 change from screening, Group 2 (1 mg IVT day 1 + wk 16), increase = worsening): 2.41 | Color vision Total Error Score Hue Style, mean [3, 17]: 48.76 | Color vision Total Error Score Hue Style, median [3, 17]: 42.00 | Color vision Total Error Score Hue Style, mean [3, 18]: 39.88 | Color vision Total Error Score Hue Style, median [3, 18]: 24.09 | Color vision Total Error Score Hue Style change, median ([3]; Week 32 change from screening, Group 2 (1 mg IVT day 1 + wk 16)): −3.17 | Color vision Total Error Score Hue Style change, median [3, 19]: 1.34 | Decrease (improvement) in color vision total error score ([3]; risuteganib responders at Week 32 (FIG. 3)): 13.03
